Results taken from ChEMBL document CHEMBL1201862, “PubChem BioAssay data set” (2004).
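Each compound was tested at five concentrations against cells in 96-well plates for 48 hours. Here, GI50 denotes the concentration required for 50% inhibition of growth.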 Calls of active or inactive are those of the source. No stated cut-off is given here; in the data, active = GI50 up to about 1.1 µM and inactive = higher.

How the values were obtained:
Test in all cases: DTP human tumour cell line panel, 48 h
786-0 = tested on: 786-0
A498 = tested on: A498
CCRF-CEM = tested on: CCRF-CEM
EKVX = tested on: EKVX
HL-60 = tested on: HL-60
HOP-92 = tested on: HOP-92
M14 = tested on: M14
MOLT-4 = tested on: MOLT-4
NCI-H226 = tested on: NCI-H226
NCI/ADR-RES = tested on: NCI/ADR-RES
OVCAR-4 = tested on: OVCAR-4
RPMI-8226 = tested on: RPMI-8226
SF-539 = tested on: SF-539
SK-MEL-2 = tested on: SK-MEL-2
SK-OV-3 = tested on: SK-OV-3
SNB-75 = tested on: SNB-75
SW-620 = tested on: SW-620
TK-10 = tested on: TK-10
UACC-62 = tested on: UACC-62
HCC 2998 = tested on: HCC 2998

Structure (SMILES) | GI50 (786-0) | GI50 (A498) | GI50 (CCRF-CEM) | GI50 (EKVX) | GI50 (HL-60) | GI50 (HOP-92) | GI50 (M14) | GI50 (MOLT-4) | GI50 (NCI-H226) | GI50 (NCI/ADR-RES) | GI50 (OVCAR-4) | GI50 (RPMI-8226) | GI50 (SF-539) | GI50 (SK-MEL-2) | GI50 (SK-OV-3) | GI50 (SNB-75) | GI50 (SW-620) | GI50 (TK-10) | GI50 (UACC-62) | GI50 (HCC 2998)
C#CCOC(=O)c1ccccc1O | > 100 µM (inactive) | > 100 µM (inactive) | > 100 µM (inactive) | > 100 µM (inactive) | > 100 µM (inactive) | > 100 µM (inactive) | > 100 µM (inactive) | > 100 µM (inactive) | > 100 µM (inactive) | > 100 µM (inactive) | > 100 µM (inactive) | > 100 µM (inactive) | > 100 µM (inactive) | > 100 µM (inactive) | > 100 µM (inactive) | > 100 µM (inactive) | > 100 µM (inactive) | > 100 µM (inactive) | > 100 µM (inactive) | 
N#Cc1[nH]c(=O)n(-c2cccc3ccccc23)c1N | > 10 µM (inactive) | > 10 µM (inactive) | > 10 µM (inactive) | > 10 µM (inactive) | > 10 µM (inactive) |  | > 10 µM (inactive) | > 10 µM (inactive) |  | > 10 µM (inactive) | > 10 µM (inactive) | 0.001 µM (active) | > 10 µM (inactive) | > 10 µM (inactive) | > 10 µM (inactive) |  | > 10 µM (inactive) | > 10 µM (inactive) | > 10 µM (inactive) | > 10 µM (inactive)
COc1ccc(/C=C2\N=C(N3CCOCC3)NC2=O)cc1 | > 100 µM (inactive) |  | > 100 µM (inactive) | > 100 µM (inactive) | > 100 µM (inactive) | > 100 µM (inactive) | > 100 µM (inactive) | > 100 µM (inactive) | > 100 µM (inactive) | > 100 µM (inactive) | > 100 µM (inactive) | > 100 µM (inactive) | > 100 µM (inactive) | > 100 µM (inactive) | > 100 µM (inactive) | 58.3 µM (inactive) | > 100 µM (inactive) | > 100 µM (inactive) | > 100 µM (inactive) | > 100 µM (inactive)
CC(=O)N1CC(C)(C)c2c1cc(C)c(O)c2C | > 100 µM (inactive) | > 100 µM (inactive) | > 100 µM (inactive) | > 100 µM (inactive) | 86.9 µM (inactive) |  | > 100 µM (inactive) | > 100 µM (inactive) | > 100 µM (inactive) | > 100 µM (inactive) | > 100 µM (inactive) | > 100 µM (inactive) | > 100 µM (inactive) | > 100 µM (inactive) | > 100 µM (inactive) |  | > 100 µM (inactive) | > 100 µM (inactive) | > 100 µM (inactive) | > 100 µM (inactive)
Oc1nc(S)nc2c1C(c1ccc(Cl)cc1)c1c(O)nc(S)nc1O2 | > 100 µM (inactive) | > 100 µM (inactive) | > 100 µM (inactive) | > 100 µM (inactive) | > 100 µM (inactive) | > 100 µM (inactive) | > 100 µM (inactive) | > 100 µM (inactive) | > 100 µM (inactive) | > 100 µM (inactive) | > 100 µM (inactive) | > 100 µM (inactive) |  | > 100 µM (inactive) |  |  | > 100 µM (inactive) | > 100 µM (inactive) | > 100 µM (inactive) | 
C=C(C)[C@H]1C2=CC(C(=O)OC)=C(C[C@H](C(=C)C)[C@@H](O)[C@@H](O)C3=C[C@H]1OC3=O)O2 | > 100 µM (inactive) | > 100 µM (inactive) | 87.9 µM (inactive) | > 100 µM (inactive) | 61 µM (inactive) | 65.5 µM (inactive) | > 100 µM (inactive) | 97.5 µM (inactive) | > 100 µM (inactive) | > 100 µM (inactive) | > 100 µM (inactive) | > 100 µM (inactive) | > 100 µM (inactive) | > 100 µM (inactive) | > 100 µM (inactive) | 37.7 µM (inactive) | > 100 µM (inactive) | > 100 µM (inactive) | > 100 µM (inactive) | 
CCOP(=O)(OCC)C(C)(C)OC(=O)NC#N | > 100 µM (inactive) |  | > 100 µM (inactive) | > 100 µM (inactive) | > 100 µM (inactive) | > 100 µM (inactive) | > 100 µM (inactive) | > 100 µM (inactive) | > 100 µM (inactive) | > 100 µM (inactive) | > 100 µM (inactive) | > 100 µM (inactive) | > 100 µM (inactive) | > 100 µM (inactive) | > 100 µM (inactive) | > 100 µM (inactive) | > 100 µM (inactive) | > 100 µM (inactive) | > 100 µM (inactive) | > 100 µM (inactive)
CN(C)c1ccc(/C=N/NC2=N/C(=C\c3ccco3)C(=O)N2)cc1 | > 100 µM (inactive) | > 100 µM (inactive) | > 100 µM (inactive) | > 100 µM (inactive) | > 100 µM (inactive) | > 100 µM (inactive) | > 100 µM (inactive) | > 100 µM (inactive) | > 100 µM (inactive) | > 100 µM (inactive) |  | > 100 µM (inactive) | > 100 µM (inactive) | > 100 µM (inactive) | > 100 µM (inactive) | > 100 µM (inactive) | > 100 µM (inactive) | > 100 µM (inactive) | > 100 µM (inactive) | 
C1CCN(CCC2CCCCN2)CC1 (stereo not given) | > 100 µM (inactive) | > 100 µM (inactive) | > 100 µM (inactive) | > 100 µM (inactive) | > 100 µM (inactive) | > 100 µM (inactive) | > 100 µM (inactive) | > 100 µM (inactive) | > 100 µM (inactive) | > 100 µM (inactive) | > 100 µM (inactive) | > 100 µM (inactive) | > 100 µM (inactive) | > 100 µM (inactive) | > 100 µM (inactive) | > 100 µM (inactive) | > 100 µM (inactive) | > 100 µM (inactive) | > 100 µM (inactive) | 
Cn1c2ccccc2n2c3ncccc3c(=S)c(C#N)c12 | 75.7 µM (inactive) | > 100 µM (inactive) | > 100 µM (inactive) | > 100 µM (inactive) | > 100 µM (inactive) |  | > 100 µM (inactive) | > 100 µM (inactive) | > 100 µM (inactive) | > 100 µM (inactive) | > 100 µM (inactive) | > 100 µM (inactive) |  | > 100 µM (inactive) | > 100 µM (inactive) | 40.3 µM (inactive) | > 100 µM (inactive) |  | > 100 µM (inactive) | > 100 µM (inactive)
COc1ccc(-n2c3c(c4c(CN(C)C)c(O)ccc42)C(=O)c2ccccc2C3=O)cc1 | 1.89 µM (inactive) | 1.21 µM (inactive) | 2.99 µM (inactive) | 7.76 µM (inactive) | 3.13 µM (inactive) | 16 µM (inactive) | 3.54 µM (inactive) | 3 µM (inactive) |  | 5.73 µM (inactive) | 2.37 µM (inactive) | 2.17 µM (inactive) | 2.04 µM (inactive) | 10 µM (inactive) | 2.48 µM (inactive) |  | 2.07 µM (inactive) | 17.6 µM (inactive) | 4.41 µM (inactive) | 2.77 µM (inactive)
O=c1[nH]c(N/N=C\C(O)C(O)C(O)C(O)CO)nc2ccccc12 (stereo not given) | > 100 µM (inactive) | > 100 µM (inactive) | > 100 µM (inactive) | > 100 µM (inactive) | > 100 µM (inactive) | > 100 µM (inactive) | > 100 µM (inactive) | > 100 µM (inactive) | > 100 µM (inactive) | > 100 µM (inactive) |  | > 100 µM (inactive) | > 100 µM (inactive) | > 100 µM (inactive) | > 100 µM (inactive) | > 100 µM (inactive) | > 100 µM (inactive) | > 100 µM (inactive) | > 100 µM (inactive) | 
O=c1[nH]c2ccc(CC(=S)N3CCOCC3)cc2o1 | > 100 µM (inactive) | > 100 µM (inactive) | 89.9 µM (inactive) | > 100 µM (inactive) | 89.9 µM (inactive) |  | > 100 µM (inactive) | > 100 µM (inactive) | > 100 µM (inactive) | > 100 µM (inactive) |  |  | > 100 µM (inactive) | > 100 µM (inactive) | > 100 µM (inactive) | > 100 µM (inactive) | > 100 µM (inactive) | > 100 µM (inactive) | > 100 µM (inactive) | 
COC(=O)C1CCC(=O)N1CN(C(C)=O)c1cccc(O)c1 (stereo not given) | > 100 µM (inactive) | > 100 µM (inactive) |  | > 100 µM (inactive) | > 100 µM (inactive) | > 100 µM (inactive) | > 100 µM (inactive) | > 100 µM (inactive) | > 100 µM (inactive) | > 100 µM (inactive) | > 100 µM (inactive) | > 100 µM (inactive) | > 100 µM (inactive) | > 100 µM (inactive) | > 100 µM (inactive) | > 100 µM (inactive) | > 100 µM (inactive) | > 100 µM (inactive) | > 100 µM (inactive) | 
c1ccc2c(c1)c1c(c3ccccc32)CN2CCCC2C1 (stereo not given) | 3.94 µM (inactive) | 3.72 µM (inactive) | 2.99 µM (inactive) | 4.74 µM (inactive) | 1.41 µM (inactive) | 2.84 µM (inactive) | 3.67 µM (inactive) | 4.61 µM (inactive) |  | 3.94 µM (inactive) | 3.3 µM (inactive) | 4.24 µM (inactive) | 2.9 µM (inactive) | 2.3 µM (inactive) | 7.52 µM (inactive) | 3.01 µM (inactive) | 2.45 µM (inactive) | 10.4 µM (inactive) | 2.33 µM (inactive) | 4.22 µM (inactive)
